In US9901583B2, “Method of treating non-small cell lung cancer and/or small cell lung cancer using thienotriazolodiazepine compounds” (ONCOETHIX GMBH, priority 2014, dated 2018):
Several values for one entry are separate records, joined by “and”; a condition that tells them apart may be missing. Identical values can stand only once. Values belong to the compound of their own block, whether it stands above or below them.

Columns and labels:
[1] = Oral exposure in the rat (pharmacokinetics); assay type: in vivo, Sprague Dawley rats; details: 1 mg/kg intravenous, rats
Protocol: The oral bioavailability of three formulations of solid dispersions of compound (1-1) was determined in rats. The three dispersions chosen were the 25% dispersion of compound (1-1) in PVP, the 25% dispersion of compound (1-1) in HPMCAS-MG, and the 50% dispersion of compound (1-1) in HPMCAS-MG. The animals used in the study were Specific Pathogen Free (SPF) Hsd:Sprague Dawley rats obtained from the Central Animal Laboratory at the University of Turku, Finland. The rats were originally purchased from Harlan, The Netherlands. The rats were female and were ten weeks of age, and 12 rats were used in the study. […]
The oral dosing solutions containing the 25% dispersion of compound (1-1) in PVP, the 25% dispersion of compound (1-1) in HPMCAS-MG, and the 50% dispersion of compound (1-1) in HPMCAS-MG were prepared by adding a pre-calculated amount of sterile water for injection to containers holding the dispersion using appropriate quantities to obtain a concentration of 0.75 mg/mL of compound (1-1). […]
Pharmacokinetic parameters were calculated with the Phoenix WinNonlin software package (version 6.2.1, Pharsight Corp., CA, USA) with standard noncompartmental methods. The elimination phase half-life (t1/2) was calculated by least-squares regression analysis of the terminal linear part of the log concentration-time curve. […]

[2] = test system: NSCLC cell lines (H2228, H3122, A549, HOP62, HOP92); experiment: MTT assay, growth inhibition, NSCLC panel; assay type: cell-based; details: 72 h, 72 h exposure, 4 of 5 NSCLC cell lines
Protocol: (§1) Protein levels were analyzed by Western Blot with commercial antibodies; RT-PCR was done with Fast SYBR Green Master Mix on a StepOnePlus Real-Time PCR System at baseline, 4 and 24 h post-treatment. For cell cycle analysis cells were stained with propidium iodide and DNA content analyzed with a FACScan flow cytometer. Compound (1-1) was combined with the targeted agents everolimus and crizotinib and the combination index (CI) determined by the Chou-Talalay method.
(§2) Materials and Methods. Five established NSCLC cell lines, HOP62, HOP92, A549, H2228, and H3122 harboring different oncogenic mutations for KRAS, LKB I, TP53 and ALK (FIG. 13) were exposed to increasing doses of compound (1-1) (OncoEthix SA, Switzerland) for 72 h and cell proliferation was evaluated by MTT assays. Results represent the mean±95% CI of at least 3 independent experiments performed in triplicate. Protein levels were analyzed by Western blot using commercial antibodies. For cell cycle analysis cells were stained with PI and analyzed using a FACScan flow cytometer after 24 h of treatment. […] Concomitant compound (1-1) combination studies were performed in cell lines exposed for 48 h to increasing doses of compound (1-1) alone or in combination with everolimus or crizotinib, and assessed using the Chou & Talalay method. Combination Index (CI) was determined by median effect plot analysis using CalcuSyn software. […]

[3] = test system: H3122; experiment: Cell cycle analysis (propidium iodide, FACScan); assay type: cell-based; details: H3122, 24 h exposure at 500 nM
Protocol: as §1, §2

[4] = test system: HOP92; experiment: Cell cycle analysis (propidium iodide, FACScan); assay type: cell-based; details: HOP92, 24 h exposure at 500 nM
Protocol: as §1, §2

[5] = test system: H2226; experiment: Cell cycle analysis (propidium iodide, FACScan); assay type: cell-based; details: H2226, 24 h exposure at 500 nM
[6] = test system: H2228 cells; experiment: Combination with crizotinib, Chou-Talalay combination index; assay type: cell-based; details: 48 h concomitant exposure, dihydrate
Protocol: as §1, §2

[7] = test system: H3122 cells; experiment: H3122 tumor-bearing mice; assay type: in vivo, male athymic NMRI nude mice; details: 3 weeks of treatment
Protocol: In vivo studies: 5×10^6 H3122 cells were injected in the flank of male athymic NMRI nude mice, and mice were randomized to 3 groups (8 mice/group) when tumor volume reach 100 mm^3; vehicle (PBS, once daily, oral continuous), Compound (1-1) (50 mg/kg/bidaily, gavage, continuous), or crizotinib (25 mg/kg/daily, gavage, continuous).

[8] = test system: DMS114 cells; experiment: MTT assay, growth inhibition; assay type: cell-based; details: Homo sapiens, DMS-114, read-out: GI50 (95% CI), 72 h exposure
Protocol: (§3) Protein levels were analyzed by Western Blot using commercial antibodies and RT-PCR was performed with Fast SYBR Green Master Mix on a StepOnePlus Real-Time PCR System at baseline, then 4 and 24 h post-treatment. For cell cycle analysis, cells were stained with propidium iodide and analyzed for DNA content with a FACScan flow cytometer.
(§4) Cell lines were exposed to increasing doses of compound (1-1) for 72 hours, and cell proliferation was evaluated with the MTT assay. GI50 and Emax values were calculated with the equation for sigmoidal dose response using Prism 5.00 for Windows. Results represent the mean±95% CI of at least 3 independent experiments performed in triplicate.
(§5) For cell cycle analysis, cells were stained with propidium iodide and analyzed with a FACScan flow cytometer. RNA was isolated after treatment with DMSO or OTX015 (500 nM) for 2, 4, 8 or 12 and 24 h and gene expression profiles (GEP) were obtained in all NSCLC and 2 SCLC (H82 and DMS114) cell lines with Illumina HumanHT-12 Expression BeadChips. Data mining was done with LIMMA, GSEA, Metacore.

[9] = test system: DMS79 cells; experiment: MTT assay, growth inhibition; assay type: cell-based; details: Homo sapiens, DMS-79, 72 h exposure
Protocol: as §3, §4, §5

[10] = test system: H69 cells; experiment: MTT assay, growth inhibition; assay type: cell-based; details: Homo sapiens, NCI-H69, 72 h exposure
Protocol: as §3, §4, §5

[11] = test system: H82 cells; experiment: MTT assay, growth inhibition; assay type: cell-based; details: Homo sapiens, NCI-H82, 72 h exposure
Protocol: as §3, §4, §5

[12] = molecular target: FKBP12 (Homo sapiens, UniProt P62942); details: cited from earlier work
[13] = test system: Akt phosphorylation on T308; details: cited from earlier work
[14] = test system: Akt phosphorylation on S473; details: cited from earlier work
[15] = test system: PI3K/mTOR; details: cited from earlier work
[16] = molecular target: PI3Kβ (p110β) (Homo sapiens, UniProt P42338); details: cited from earlier work
[17] = molecular target: PI3Kγ (p110γ) (Homo sapiens, UniProt P48736); details: cited from earlier work
[18] = test system: PDGFR; details: read-out: IC50 PDGFR; cited from earlier work

FKBP12, sequence (P62942 whole entry, species assumed): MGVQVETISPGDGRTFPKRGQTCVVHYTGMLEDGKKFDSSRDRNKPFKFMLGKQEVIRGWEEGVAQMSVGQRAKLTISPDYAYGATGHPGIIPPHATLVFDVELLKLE
PI3Kβ (p110β), sequence (P42338 whole entry, species assumed): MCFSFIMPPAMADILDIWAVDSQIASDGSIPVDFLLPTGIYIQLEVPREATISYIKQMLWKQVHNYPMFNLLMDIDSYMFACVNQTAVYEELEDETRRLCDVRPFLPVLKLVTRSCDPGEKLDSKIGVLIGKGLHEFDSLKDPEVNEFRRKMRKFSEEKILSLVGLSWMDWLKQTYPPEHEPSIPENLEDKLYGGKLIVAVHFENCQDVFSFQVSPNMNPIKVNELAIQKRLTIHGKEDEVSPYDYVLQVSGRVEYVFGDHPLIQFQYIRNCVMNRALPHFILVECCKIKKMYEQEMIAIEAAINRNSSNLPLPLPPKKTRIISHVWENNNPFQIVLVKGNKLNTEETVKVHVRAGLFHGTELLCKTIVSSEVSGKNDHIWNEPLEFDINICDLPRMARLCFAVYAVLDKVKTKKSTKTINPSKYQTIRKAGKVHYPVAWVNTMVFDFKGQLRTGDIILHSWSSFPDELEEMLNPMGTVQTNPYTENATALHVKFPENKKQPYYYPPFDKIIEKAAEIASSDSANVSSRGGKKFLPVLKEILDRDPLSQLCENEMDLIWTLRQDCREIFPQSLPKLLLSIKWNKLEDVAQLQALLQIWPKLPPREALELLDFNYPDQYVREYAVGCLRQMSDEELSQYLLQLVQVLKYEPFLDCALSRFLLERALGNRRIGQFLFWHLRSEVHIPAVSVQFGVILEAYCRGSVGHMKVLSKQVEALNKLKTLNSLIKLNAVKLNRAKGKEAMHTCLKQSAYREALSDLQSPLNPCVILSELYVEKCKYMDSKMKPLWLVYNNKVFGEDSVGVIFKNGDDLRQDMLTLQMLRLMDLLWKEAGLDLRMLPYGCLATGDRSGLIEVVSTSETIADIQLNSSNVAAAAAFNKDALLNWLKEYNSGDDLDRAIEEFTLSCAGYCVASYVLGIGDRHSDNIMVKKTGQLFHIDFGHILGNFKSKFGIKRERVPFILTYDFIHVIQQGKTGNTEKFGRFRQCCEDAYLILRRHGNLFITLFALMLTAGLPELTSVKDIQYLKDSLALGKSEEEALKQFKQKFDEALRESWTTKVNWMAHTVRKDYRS
PI3Kβ (p110β), sequence (P27986 whole entry partner, species assumed): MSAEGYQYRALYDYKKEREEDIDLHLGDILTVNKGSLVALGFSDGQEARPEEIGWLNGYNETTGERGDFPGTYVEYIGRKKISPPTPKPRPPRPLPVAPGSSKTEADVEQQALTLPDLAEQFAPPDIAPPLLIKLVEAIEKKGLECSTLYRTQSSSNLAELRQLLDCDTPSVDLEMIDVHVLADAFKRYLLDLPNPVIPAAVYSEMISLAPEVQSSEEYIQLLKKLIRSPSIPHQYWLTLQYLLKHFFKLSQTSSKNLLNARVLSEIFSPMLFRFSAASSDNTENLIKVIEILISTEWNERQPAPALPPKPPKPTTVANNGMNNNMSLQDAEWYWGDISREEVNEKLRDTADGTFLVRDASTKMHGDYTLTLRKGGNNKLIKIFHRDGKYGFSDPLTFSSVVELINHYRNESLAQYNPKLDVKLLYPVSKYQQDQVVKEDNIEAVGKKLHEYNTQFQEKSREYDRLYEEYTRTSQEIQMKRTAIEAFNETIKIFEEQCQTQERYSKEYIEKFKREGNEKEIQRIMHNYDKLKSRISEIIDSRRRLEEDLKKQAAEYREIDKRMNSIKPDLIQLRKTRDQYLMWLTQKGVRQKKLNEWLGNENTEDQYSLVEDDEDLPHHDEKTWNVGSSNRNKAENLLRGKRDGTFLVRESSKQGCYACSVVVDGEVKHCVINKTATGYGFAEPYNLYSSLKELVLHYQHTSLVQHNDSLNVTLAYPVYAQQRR
PI3Kγ (p110γ), sequence (P48736 whole entry, species assumed): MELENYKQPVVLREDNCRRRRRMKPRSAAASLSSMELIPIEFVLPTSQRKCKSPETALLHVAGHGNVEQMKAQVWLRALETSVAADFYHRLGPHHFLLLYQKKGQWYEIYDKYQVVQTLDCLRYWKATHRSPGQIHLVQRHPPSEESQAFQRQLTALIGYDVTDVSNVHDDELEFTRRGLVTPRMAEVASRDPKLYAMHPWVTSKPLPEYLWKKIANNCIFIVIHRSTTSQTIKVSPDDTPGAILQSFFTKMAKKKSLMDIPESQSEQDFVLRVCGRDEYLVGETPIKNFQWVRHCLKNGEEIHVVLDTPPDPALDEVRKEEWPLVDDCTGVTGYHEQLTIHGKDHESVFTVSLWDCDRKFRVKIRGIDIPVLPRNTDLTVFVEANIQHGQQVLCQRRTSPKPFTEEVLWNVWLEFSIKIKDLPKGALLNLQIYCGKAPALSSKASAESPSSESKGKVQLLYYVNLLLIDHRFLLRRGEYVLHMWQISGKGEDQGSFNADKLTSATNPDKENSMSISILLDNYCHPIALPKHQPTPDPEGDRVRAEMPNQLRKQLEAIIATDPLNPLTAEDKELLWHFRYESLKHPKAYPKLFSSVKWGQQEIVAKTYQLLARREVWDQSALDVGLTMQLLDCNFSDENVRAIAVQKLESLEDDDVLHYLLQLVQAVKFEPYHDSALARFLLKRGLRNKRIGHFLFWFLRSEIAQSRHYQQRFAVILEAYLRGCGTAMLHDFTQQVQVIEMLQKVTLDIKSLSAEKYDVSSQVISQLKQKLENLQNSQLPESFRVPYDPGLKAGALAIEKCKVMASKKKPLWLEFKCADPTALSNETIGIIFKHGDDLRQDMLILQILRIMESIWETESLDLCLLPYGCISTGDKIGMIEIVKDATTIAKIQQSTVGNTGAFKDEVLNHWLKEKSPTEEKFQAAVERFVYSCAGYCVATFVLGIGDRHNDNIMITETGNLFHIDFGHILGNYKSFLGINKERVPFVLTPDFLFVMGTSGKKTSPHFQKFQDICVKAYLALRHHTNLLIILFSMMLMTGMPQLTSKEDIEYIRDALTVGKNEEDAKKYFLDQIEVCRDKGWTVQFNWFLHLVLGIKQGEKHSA

CI/F [1]: 13.4 mL/min/kg
GI50 [2]: 110 to 940 nM
weight loss [7]: no weight loss was observed
Compound: Cc1sc2c(c1C)C(c1ccc(Cl)cc1)=N[C@@H](CC(=O)Nc1ccc(O)cc1)c1nnc(C)n1-2 [Compound (1-1), 2-[(6S)-4-(4-chlorophenyl)-2,3,9-trimethyl-6H-thienol[3,2-f]-[1,2,4]triazolo[4,3-a][1,4]diazepin-6-yl]-N-(4-hydroxyphenyl)acetamide dihydrate]
reduction of percent cells in the S phase [3]: 52%
reduction of percent cells in the S phase [4]: 40%
reduction of percent cells in the S phase [5]: 42%
combination index (CI) with crizotinib [6]: 0.98 and 0.9
GI50 [8]: 120 nM
GI50 [9]: > 6000 nM
GI50 [10]: > 6000 nM
GI50 [11]: > 6000 nM

Compound: CO[C@H]1C[C@@H]2CC[C@@H](C)[C@@](O)(O2)C(=O)C(=O)N2CCCC[C@H]2C(=O)O[C@H]([C@H](C)C[C@@H]2CC[C@@H](OCCO)[C@H](OC)C2)CC(=O)[C@H](C)/C=C(\C)[C@@H](O)[C@@H](OC)C(=O)[C@H](C)C[C@H](C)/C=C/C=C/C=C/1C [Everolimus]
IC50 [12]: 1.6 to 2.4 nM

Compound: COc1ccc(-c2cc3c(C)nc(N)nc3n([C@H]3CC[C@H](OCCO)CC3)c2=O)cn1 [PF-04691502]
IC50 [13]: 7.5 nM
IC50 [14]: 3.8 nM

Compound: COc1ccc(-c2ccc3ncc4c(c3c2)n(-c2ccc(N3CCNCC3)c(C(F)(F)F)c2)c(=O)n4C)cn1 [NVP-BGT226]
IC50 [15]: 1 nM

Compound: GSK2126458
Ki [16]: 0.13 nM
Ki [17]: 0.024 nM

Compound: Nc1ncnc2c1c(-c1cnc3[nH]ccc3c1)nn2C1CCCC1 [PP-121]
IC50 [18]: 2 nM
